Measured values: ChEMBL document CHEMBL5325394, “What We Have Gained from Ibogaine: α3β4 Nicotinic Acetylcholine Receptor Inhibitors as Treatments for Substance Use Disorders” (J Med Chem, 2023)
Where a SMILES comes first, the peptide text is derived from it. Bridges are numbered along the chain shown (N, C = ends).

Tests used:
[1] = biological target: T1, Neuronal acetylcholine receptor subunit alpha-7 (Homo sapiens, UniProt P36544); assay: Antagonist activity at alpha7 nAChRs in human SH-SY5Y cells assessed as increase in intracellular calcium level by FLIPR assay; assay type: cell-based
[2] = biological target: T2, Neuronal acetylcholine receptor; alpha4/beta2 (Homo sapiens, UniProt P17787+P43681); assay: Partial agonist activity at alpha4beta2 nAChR in HEK293 cells assessed as reduction in Ca+2 influx by FLIPR assy; assay type: cell-based
[3] = biological target: T3, Neuronal acetylcholine receptor; alpha3/beta4 (Homo sapiens, UniProt P30926+P32297); assay: Partial agonist activity at alpha3beta4 nAChR in HEK293 cells assessed as reduction in Ca+2 influx by FLIPR assy; assay type: cell-based
[4] = biological target: T1, Neuronal acetylcholine receptor subunit alpha-7; assay: Antagonist activity at nAChR alpha7 in human SH-SY5Y cells assessed as increase in intracellular calcium level preincubated for 10 mins followed by choline addition measured after 30 mins by FLIPR assay; assay type: cell-based
[5] = biological target: T3, Neuronal acetylcholine receptor; alpha3/beta4; assay: Antagonist activity at nAChR alpha3beta4 in human SH-SY5Y cells assessed as increase in intracellular calcium level preincubated for 10 mins followed by nicotine addition measured after 30 mins by FLIPR assay; assay type: cell-based
Histamine H1 receptor = Histamine H1 receptor (Homo sapiens, UniProt P35367); assay: Antagonist activity at H1 receptor (unknown origin)
[6] = biological target: T4, Muscarinic acetylcholine receptor M5 (Homo sapiens, UniProt P08912); assay: Antagonist activity at muscarinic M5 receptor (unknown origin); assay type: functional
T4 sequence (P08912 whole entry): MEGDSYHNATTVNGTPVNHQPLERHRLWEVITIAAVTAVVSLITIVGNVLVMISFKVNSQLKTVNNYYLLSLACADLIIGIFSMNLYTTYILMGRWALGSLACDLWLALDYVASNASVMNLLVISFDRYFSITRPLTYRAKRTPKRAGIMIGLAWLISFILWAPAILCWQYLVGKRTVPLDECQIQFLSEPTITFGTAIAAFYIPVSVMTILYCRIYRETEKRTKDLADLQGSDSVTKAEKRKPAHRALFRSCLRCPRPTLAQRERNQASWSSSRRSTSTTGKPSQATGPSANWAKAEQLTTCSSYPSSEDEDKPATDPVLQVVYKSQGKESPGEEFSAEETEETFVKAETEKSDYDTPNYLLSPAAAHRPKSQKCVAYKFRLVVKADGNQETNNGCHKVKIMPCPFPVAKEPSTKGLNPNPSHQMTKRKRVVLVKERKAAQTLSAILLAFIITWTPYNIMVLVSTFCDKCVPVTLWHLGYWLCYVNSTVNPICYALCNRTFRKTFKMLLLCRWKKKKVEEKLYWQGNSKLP

[7] = biological target: Neuronal acetylcholine receptor; alpha4/beta2 (Rattus norvegicus, UniProt P09483+P12390); assay: Binding affinity to rat alpha4beta2 nAChR expressed in HEK cells assessed as inhibition constant measured after 2 hrs in the presence of [3H]epibatidine; assay type: cell-based
[8] = biological target: Sigma intracellular receptor 2 (Homo sapiens, UniProt Q5BJF2); assay: Antagonist activity at sigma 2 receptor (unknown origin)
[9] = biological target: T2, Neuronal acetylcholine receptor; alpha4/beta2; assay: Antagonist activity at alpha4beta2 nAChR (unknown origin); assay type: protein-complex assay
[10] = biological target: Serotonin 3 (5-HT3) receptor; assay: Antagonist activity at 5-HT3 receptor (unknown origin); assay type: protein-complex assay, Homo sapiens
[11] = biological target: Neuronal acetylcholine receptor subunit alpha-7 (Rattus norvegicus, UniProt Q05941); assay: Binding affinity to rat alpha7 nAChR expressed in HEK cells assessed as inhibition constant measured after 2 hrs in the presence of [3H]epibatidine; assay type: cell-based
[12] = biological target: T1, Neuronal acetylcholine receptor subunit alpha-7; assay: Antagonist activity at alpha7 nAChRs (unknown origin) assessed as inhibition constant
[13] = biological target: T2, Neuronal acetylcholine receptor; alpha4/beta2; assay: Antagonist activity at alpha4beta2 nAChRs (unknown origin) assessed as inhibition constant; assay type: protein-complex assay

T3 sequence (P30926 whole entry): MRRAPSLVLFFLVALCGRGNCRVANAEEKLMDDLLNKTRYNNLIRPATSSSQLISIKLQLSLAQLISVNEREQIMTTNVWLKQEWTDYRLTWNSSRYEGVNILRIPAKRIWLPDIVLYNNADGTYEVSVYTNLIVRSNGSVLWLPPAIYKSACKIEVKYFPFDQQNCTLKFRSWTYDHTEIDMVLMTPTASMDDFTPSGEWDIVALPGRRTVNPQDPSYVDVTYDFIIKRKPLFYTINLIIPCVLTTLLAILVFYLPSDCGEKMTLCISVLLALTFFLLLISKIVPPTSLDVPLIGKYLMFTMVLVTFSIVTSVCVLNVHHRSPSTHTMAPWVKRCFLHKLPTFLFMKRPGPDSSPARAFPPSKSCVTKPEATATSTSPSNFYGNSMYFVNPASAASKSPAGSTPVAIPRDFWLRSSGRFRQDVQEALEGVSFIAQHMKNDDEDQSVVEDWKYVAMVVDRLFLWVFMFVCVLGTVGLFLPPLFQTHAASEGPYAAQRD
T3 sequence (P32297 whole entry): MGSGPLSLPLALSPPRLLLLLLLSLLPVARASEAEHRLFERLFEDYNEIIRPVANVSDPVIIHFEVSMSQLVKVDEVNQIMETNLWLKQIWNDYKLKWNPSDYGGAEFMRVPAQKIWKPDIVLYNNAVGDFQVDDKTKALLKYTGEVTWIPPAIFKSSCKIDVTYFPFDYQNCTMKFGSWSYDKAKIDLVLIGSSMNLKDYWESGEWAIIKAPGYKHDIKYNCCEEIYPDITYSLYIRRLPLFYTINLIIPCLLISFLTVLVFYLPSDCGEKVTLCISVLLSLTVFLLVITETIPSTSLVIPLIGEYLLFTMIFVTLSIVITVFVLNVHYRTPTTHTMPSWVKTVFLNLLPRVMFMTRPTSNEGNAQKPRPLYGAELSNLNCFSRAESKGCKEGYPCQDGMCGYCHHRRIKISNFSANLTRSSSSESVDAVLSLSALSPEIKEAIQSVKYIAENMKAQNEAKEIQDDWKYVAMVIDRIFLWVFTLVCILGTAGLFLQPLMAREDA
T2 sequence (P17787 whole entry): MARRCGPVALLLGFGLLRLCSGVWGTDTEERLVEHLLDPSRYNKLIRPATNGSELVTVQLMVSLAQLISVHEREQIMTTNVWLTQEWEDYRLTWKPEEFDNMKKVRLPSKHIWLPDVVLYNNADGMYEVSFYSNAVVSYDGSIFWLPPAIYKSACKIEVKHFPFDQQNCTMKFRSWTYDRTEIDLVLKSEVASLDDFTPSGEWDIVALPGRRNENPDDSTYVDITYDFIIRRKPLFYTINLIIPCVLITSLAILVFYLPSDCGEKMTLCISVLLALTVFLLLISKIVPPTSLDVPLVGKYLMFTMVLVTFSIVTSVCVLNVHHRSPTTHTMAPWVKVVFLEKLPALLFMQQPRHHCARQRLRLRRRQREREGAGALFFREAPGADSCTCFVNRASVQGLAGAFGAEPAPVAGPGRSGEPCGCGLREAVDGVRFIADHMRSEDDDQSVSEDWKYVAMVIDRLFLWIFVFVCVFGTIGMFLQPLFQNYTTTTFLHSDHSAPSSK
T2 sequence (P43681 whole entry): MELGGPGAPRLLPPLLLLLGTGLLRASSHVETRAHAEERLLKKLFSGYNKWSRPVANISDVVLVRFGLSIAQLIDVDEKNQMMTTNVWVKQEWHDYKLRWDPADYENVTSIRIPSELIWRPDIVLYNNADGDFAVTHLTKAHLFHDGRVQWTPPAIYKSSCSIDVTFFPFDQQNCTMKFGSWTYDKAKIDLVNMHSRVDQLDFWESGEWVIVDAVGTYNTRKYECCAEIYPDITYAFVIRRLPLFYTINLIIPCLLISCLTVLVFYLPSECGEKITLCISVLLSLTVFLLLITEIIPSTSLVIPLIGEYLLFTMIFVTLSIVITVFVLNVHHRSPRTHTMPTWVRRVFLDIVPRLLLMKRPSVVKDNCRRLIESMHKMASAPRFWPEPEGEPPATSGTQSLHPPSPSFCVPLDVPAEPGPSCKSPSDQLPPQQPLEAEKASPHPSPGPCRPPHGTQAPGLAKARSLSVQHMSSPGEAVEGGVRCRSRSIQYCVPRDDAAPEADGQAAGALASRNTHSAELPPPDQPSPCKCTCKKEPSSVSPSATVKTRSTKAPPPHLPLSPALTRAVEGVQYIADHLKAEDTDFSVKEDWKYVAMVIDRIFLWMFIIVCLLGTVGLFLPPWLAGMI
T1 sequence (P36544 whole entry): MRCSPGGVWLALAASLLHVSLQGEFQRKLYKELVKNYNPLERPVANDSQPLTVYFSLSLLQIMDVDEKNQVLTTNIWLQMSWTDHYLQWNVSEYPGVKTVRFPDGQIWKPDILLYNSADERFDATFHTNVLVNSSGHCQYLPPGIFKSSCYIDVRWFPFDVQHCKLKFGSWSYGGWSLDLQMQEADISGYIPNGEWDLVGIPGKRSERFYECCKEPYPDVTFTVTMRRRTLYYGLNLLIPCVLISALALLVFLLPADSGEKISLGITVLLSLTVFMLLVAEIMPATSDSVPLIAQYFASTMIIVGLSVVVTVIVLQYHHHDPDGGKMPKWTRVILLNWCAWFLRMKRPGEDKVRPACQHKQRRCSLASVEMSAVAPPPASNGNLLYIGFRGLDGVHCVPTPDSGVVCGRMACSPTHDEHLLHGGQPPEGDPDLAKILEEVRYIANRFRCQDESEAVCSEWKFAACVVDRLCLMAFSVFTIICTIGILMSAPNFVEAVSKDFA
Histamine H1 receptor, sequence (P35367 whole entry): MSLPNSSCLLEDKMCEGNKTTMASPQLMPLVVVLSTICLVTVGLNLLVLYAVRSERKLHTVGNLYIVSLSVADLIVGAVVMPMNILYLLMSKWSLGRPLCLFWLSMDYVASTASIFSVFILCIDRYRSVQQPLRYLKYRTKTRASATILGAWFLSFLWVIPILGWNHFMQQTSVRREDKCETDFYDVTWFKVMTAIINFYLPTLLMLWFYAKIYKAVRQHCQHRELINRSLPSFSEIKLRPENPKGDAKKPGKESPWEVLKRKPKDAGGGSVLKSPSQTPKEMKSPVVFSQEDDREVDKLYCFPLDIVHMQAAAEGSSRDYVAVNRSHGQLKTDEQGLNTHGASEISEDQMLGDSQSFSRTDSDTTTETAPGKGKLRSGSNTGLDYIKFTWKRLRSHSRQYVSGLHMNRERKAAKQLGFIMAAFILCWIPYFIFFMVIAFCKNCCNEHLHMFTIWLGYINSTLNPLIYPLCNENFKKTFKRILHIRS
Neuronal acetylcholine receptor; alpha4/beta2 (Rattus norvegicus, UniProt P09483+P12390), sequence (P09483 whole entry): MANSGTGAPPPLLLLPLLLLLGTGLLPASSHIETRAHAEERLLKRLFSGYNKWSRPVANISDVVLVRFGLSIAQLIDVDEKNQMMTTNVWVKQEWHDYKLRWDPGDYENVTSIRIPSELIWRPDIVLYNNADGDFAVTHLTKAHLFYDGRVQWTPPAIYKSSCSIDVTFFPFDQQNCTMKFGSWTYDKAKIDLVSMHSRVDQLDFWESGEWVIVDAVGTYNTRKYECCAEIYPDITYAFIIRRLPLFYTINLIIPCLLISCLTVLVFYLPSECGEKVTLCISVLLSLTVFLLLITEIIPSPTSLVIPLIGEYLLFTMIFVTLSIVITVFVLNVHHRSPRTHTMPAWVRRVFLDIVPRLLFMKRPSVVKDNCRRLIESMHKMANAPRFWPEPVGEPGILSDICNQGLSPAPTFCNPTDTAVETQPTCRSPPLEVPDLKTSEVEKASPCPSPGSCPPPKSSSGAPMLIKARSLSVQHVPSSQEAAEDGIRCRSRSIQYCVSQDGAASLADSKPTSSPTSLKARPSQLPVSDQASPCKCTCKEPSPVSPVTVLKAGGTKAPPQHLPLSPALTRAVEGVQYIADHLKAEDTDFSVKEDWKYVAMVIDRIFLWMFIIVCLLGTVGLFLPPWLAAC
Neuronal acetylcholine receptor; alpha4/beta2 (Rattus norvegicus, UniProt P09483+P12390), sequence (P12390 whole entry): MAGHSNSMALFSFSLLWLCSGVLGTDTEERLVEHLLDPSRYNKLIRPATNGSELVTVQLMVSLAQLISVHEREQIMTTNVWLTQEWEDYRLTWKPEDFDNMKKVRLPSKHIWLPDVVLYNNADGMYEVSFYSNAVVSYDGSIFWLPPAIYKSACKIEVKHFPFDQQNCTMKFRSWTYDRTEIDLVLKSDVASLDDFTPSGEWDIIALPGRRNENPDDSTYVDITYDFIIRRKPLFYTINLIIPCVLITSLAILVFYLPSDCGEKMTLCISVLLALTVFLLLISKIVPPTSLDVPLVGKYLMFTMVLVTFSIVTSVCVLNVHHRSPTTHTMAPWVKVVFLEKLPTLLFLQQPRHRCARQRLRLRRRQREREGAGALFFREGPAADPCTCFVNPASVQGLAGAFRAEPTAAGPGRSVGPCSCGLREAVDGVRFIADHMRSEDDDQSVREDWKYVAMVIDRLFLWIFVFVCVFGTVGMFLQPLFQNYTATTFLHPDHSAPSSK
Sigma intracellular receptor 2, sequence (Q5BJF2 whole entry): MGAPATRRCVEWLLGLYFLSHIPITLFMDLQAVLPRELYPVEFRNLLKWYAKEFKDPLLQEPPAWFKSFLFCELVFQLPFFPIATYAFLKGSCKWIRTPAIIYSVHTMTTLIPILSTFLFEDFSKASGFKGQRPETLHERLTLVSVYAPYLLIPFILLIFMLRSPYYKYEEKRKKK
Neuronal acetylcholine receptor subunit alpha-7 (Rattus norvegicus, UniProt Q05941), sequence (Q05941 whole entry): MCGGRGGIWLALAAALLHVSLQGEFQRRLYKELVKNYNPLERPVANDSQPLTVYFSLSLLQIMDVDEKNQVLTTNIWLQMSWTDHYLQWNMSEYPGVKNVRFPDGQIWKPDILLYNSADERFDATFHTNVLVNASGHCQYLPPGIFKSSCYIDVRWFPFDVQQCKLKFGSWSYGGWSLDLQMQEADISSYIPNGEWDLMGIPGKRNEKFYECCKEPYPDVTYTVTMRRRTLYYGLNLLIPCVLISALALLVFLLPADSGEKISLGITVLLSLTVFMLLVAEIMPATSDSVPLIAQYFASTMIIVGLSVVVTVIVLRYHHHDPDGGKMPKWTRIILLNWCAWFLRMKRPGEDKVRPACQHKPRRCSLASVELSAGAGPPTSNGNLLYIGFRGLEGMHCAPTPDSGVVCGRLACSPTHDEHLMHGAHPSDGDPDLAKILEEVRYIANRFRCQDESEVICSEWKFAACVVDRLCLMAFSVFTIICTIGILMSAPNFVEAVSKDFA

SMILES: CC[C@H](C)[C@@H]1NC(=O)[C@H](CC(N)=O)NC(=O)[C@@H]2CCCN2C(=O)[C@H](CC(N)=O)NC(=O)[C@H](CC(N)=O)NC(=O)[C@H](C(C)C)NC(=O)[C@H](CCCNC(=N)N)NC(=O)[C@@H]2CSSC[C@H](NC(=O)CNC(=O)[C@@H](N)CO)C(=O)N[C@@H](CSSC[C@@H](C(=O)O)NC1=O)C(=O)N[C@@H](CO)C(=O)N[C@@H](CC(N)=O)C(=O)N1CCC[C@H]1C(=O)N[C@@H](C)C(=O)N2 (H-SGCCSNPACRVNNPNIC-OH; disulfide 3-9, 4-17)
- IC50 [1]: > 10 nM

SMILES: FC(F)(F)c1ccc2c(c1)[C@@H]1CNC[C@H]2C1
- IC50 [2]: 110 nM
- IC50 [3]: 260 nM

SMILES: CC[C@H](C)[C@@H]1NC(=O)[C@H](CC(N)=O)NC(=O)[C@@H]2CCCN2C(=O)[C@H](CC(N)=O)NC(=O)[C@H](CC(N)=O)NC(=O)[C@H](C(C)C)NC(=O)[C@H](CCSC)NC(=O)[C@@H]2CSSC[C@H](NC(=O)CNC(=O)[C@@H](N)CO)C(=O)N[C@@H](CSSC[C@@H](C(=O)O)NC1=O)C(=O)N[C@@H](CO)C(=O)N[C@@H](CC(N)=O)C(=O)N1CCC[C@H]1C(=O)N[C@@H](C)C(=O)N2 (H-SGCCSNPACMVNNPNIC-OH; disulfide 3-9, 4-17)
- IC50 [4]: 242 nM
- IC50 [5]: 440 nM

SMILES: CN1C2CCCC1CC(Nc1ccccc1Br)C2 (stereo unspecified)
- IC50 (Histamine H1 receptor): 201 nM
- IC50 [6]: 325 nM
- Ki [7]: 477 nM
- IC50 [8]: 418 nM
- IC50 [9]: 300 nM
- IC50 [10]: 600 nM
- Ki [11]: 222 nM

SMILES: CC[C@H](C)[C@@H]1NC(=O)[C@H](CC(N)=O)NC(=O)[C@@H]2CCCN2C(=O)[C@H](CC(N)=O)NC(=O)[C@H](CC(C)C)NC(=O)[C@H](C(C)C)NC(=O)[C@H](Cc2ccccc2)NC(=O)[C@@H]2CSSC[C@H](NC(=O)CNC(=O)[C@@H](N)CO)C(=O)N[C@@H](CSSC[C@@H](C(=O)O)NC1=O)C(=O)N[C@@H](CO)C(=O)N[C@@H](CC(N)=O)C(=O)N1CCC[C@H]1C(=O)N[C@@H](C)C(=O)N2 (H-SGCCSNPACFVLNPNIC-OH; disulfide 3-9, 4-17)
- IC50 [4]: > 100000 nM
- IC50 [5]: 410 nM

SMILES: CNC1(C)[C@H]2CC[C@H](C2)C1(C)C (mixture of isomers)
- Ki [12]: 6.9 µM
- Ki [13]: 2500 nM
